For 4 compounds, Ki results are on record in BindingDB's records for doi:10.1021/jm050280z (Uppsala University, 2005).

A word on the Ki: it is the equilibrium dissociation constant of an inhibitor or competing ligand from its target. The low end stands for tighter binding, the high end for weaker binding.

Starred links: 1 amine or outer side, 2 acyl side, 3 side chain; linkers in the order of their positions; H or OH if unused. Non-standard residues stand in square brackets, D forms with d. Residues, ends and D or L forms follow the SMILES beside them. X2 = O=C(c1cc(CN[*:1])cc(Cc2ccc(O)cc2)c1)[*:2]; X1 = O=C(c1cc(Cc2ccc(O)cc2)cc(N[*:1])c1)[*:2]

The target of this assay is Type-2 angiotensin II receptor (Sus scrofa). The experiment in a line: Binding affinity for angiotensin II receptor, type 2 in pig uterus myometrium using [125I]-Ang II as radioligand, in pH 7.4 Tris-HCl buffer for 1.5 hr at 25 degree C.
`N=C(N)NCCC[C@H](NC(=O)[C@@H](N)CC(=O)O)C(=O)NCc1cc(Cc2ccc(O)cc2)cc(C(=O)N[C@@H](Cc2cnc[nH]2)C(=O)N2CCC[C@H]2C(=O)N[C@@H](Cc2ccccc2)C(=O)O)c1` [(S)-3-Amino-N-{(S)-1-[3-[(S)-2-[2-((S)-(S)-1-carboxy-2-phenyl-ethylcarbamoyl)-pyrrolidin-1-yl]-1-(3H-imidazol-4-ylmethyl)-2-oxo-ethylcarbamoyl]-5-(4-hydroxy-benzyl)-benzylcarbamoyl]-4-guanidino-butyl}-succinamic acid] (H-DR[X2]HPF-OH): affinity was put at a Ki of 10.1 nM.

Take `CC(C)[C@H](NC(=O)[C@H](CCCNC(=N)N)NC(=O)[C@@H](N)CC(=O)O)C(=O)NCc1cc(Cc2ccc(O)cc2)cc(C(=O)N[C@@H](Cc2cnc[nH]2)C(=O)N2CCC[C@H]2C(=O)N[C@@H](Cc2ccccc2)C(=O)O)c1` [(S)-3-Amino-N-((S)-1-{1-[(S)-3-[2-[2-((S)-(S)-1-carboxy-2-phenyl-ethylcarbamoyl)-pyrrolidin-1-yl]-1-(3H-imidazol-4-ylmethyl)-2-oxo-ethylcarbamoyl]-5-(4-hydroxy-benzyl)-benzylcarbamoyl]-2-methyl-propylcarbamoyl}-4-guanidino-butyl)-succinamic acid] (H-DRV[X2]HPF-OH): the affinity, expressed as Ki, was 1.85 nM.

For the compound `N=C(N)NCCC[C@H](NC(=O)[C@@H](N)CC(=O)O)C(=O)Nc1cc(Cc2ccc(O)cc2)cc(C(=O)N[C@@H](Cc2cnc[nH]2)C(=O)N2CCC[C@H]2C(=O)N[C@@H](Cc2ccccc2)C(=O)O)c1` [(S)-3-Amino-N-{(S)-1-[3-[(S)-2-[2-((S)-(S)-1-carboxy-2-phenyl-ethylcarbamoyl)-pyrrolidin-1-yl]-1-(3H-imidazol-4-ylmethyl)-2-oxo-ethylcarbamoyl]-5-(4-hydroxy-benzyl)-phenylcarbamoyl]-4-guanidino-butyl}-succinamic acid] (H-DR[X1]HPF-OH), the Ki was found to be 41.3 nM.

In turn, `CC(C)[C@H](NC(=O)[C@H](CCCNC(=N)N)NC(=O)[C@@H](N)CC(=O)O)C(=O)Nc1cc(Cc2ccc(O)cc2)cc(C(=O)N[C@@H](Cc2cnc[nH]2)C(=O)N2CCC[C@H]2C(=O)N[C@@H](Cc2ccccc2)C(=O)O)c1` [(S)-3-Amino-N-((S)-1-{(S)-1-[(S)-3-[2-[2-((S)-(S)-1-carboxy-2-phenyl-ethylcarbamoyl)-pyrrolidin-1-yl]-1-(3H-imidazol-4-ylmethyl)-2-oxo-ethylcarbamoyl]-5-(4-hydroxy-benzyl)-phenylcarbamoyl]-2-methyl-propylcarbamoyl}-4-guanidino-butyl)-succinamic acid] (H-DRV[X1]HPF-OH) displayed a Ki of 9.8 nM.
